Assay results published in patent US20190105337A1, “METHODS OF TREATING BACTERIAL INFECTIONS” (priority 2015, published 2019).
Blank lines part the entries; values can stand above or below the compound they belong to.

Key:
[1] = Example 1: safety and tolerability of Compound I in healthy adult subjects; assay type: in vivo, human
Method: 56 healthy subjects were enrolled into one of 7 cohorts of 8 subjects each in the single ascending dose phase (250 mg, 500 mg, 750 mg, 1000 mg, 1250 mg, 1500 mg and 2000 mg). Thirty-two additional subjects were then enrolled into one of 4 cohorts in the multiple-dose phase (250 mg, 1000 mg, 1500 mg, and 2000 mg, given q8 h for 7 days). […] All infusions were administered over 3 hours. Plasma and urine samples were obtained after single or multiple doses and assayed for Compound I content using a validated HPLC/MS method.

clinical = conditions: both, human, in vivo
Method: A total of twenty-five (n=25) male and female subjects who met the study entry criteria and completed all phases of the pharmacokinetic study were included in this pharmacokinetic analysis. […] Blood samples were collected to measure drug concentrations in plasma prior to (time 0), and at 1.5, 2.95, 3.083, 3.25, 3.5, 4, 6, and 8 hours after the start of a 3-hour intravenous infusion of the third combination dose.
Urea has been commonly used as an endogenous marker to estimate the apparent volume of ELF. Blood samples to determine plasma urea concentrations were obtained just prior to scheduled bronchoscopy. Aliquots of BAL were obtained to determine urea concentrations in BAL and cell count with differential. The standardized bronchoscopy with BAL procedure for the collection of intrapulmonary samples has been previously described in the references listed below.
(Reports MC14B-0013, MC14B-0015, MC14I-011, and MC14I-0012). The urea concentrations in plasma and BAL were performed with a microplate-based method with an 0-phthalaldehyde chromogenic solution at MicroConstants, Inc., San Diego, Calif.
The calculations of ELF volume and drug concentrations in ELF and AM were performed with BAL supernatant and pulmonary (alveolar) cells (“cell pellet”) from aspirates recovered from the 2nd, 3rd, and 4th instillations (BAL2). The concentration of drug (ABXELF) in the epithelial lining fluid (ELF) was determined as follows:
[…]
VELF is derived from the following:
where UreaBAL is the concentration of urea in BAL fluid and UreaP is the concentration of urea in plasma.
The concentration of drug (ABXAM) in the alveolar cells (AC) was determined as follows:
Differential cell count was performed to determine the number of macrophages present. A mean macrophage cell volume of 2.42 μl/106 cells was used in the calculations for volume of alveolar cells in the pellet suspension.
The concentration ratios of ELF and AM to the simultaneous plasma concentrations were calculated for each subject and summarized for each group at each sampling time. […] The 8-hour sampling time was also used as a value at time zero for determining the area term of plasma, ELF, and AM. The AUC0-8 for each matrix was determined with the linear trapezoidal method. The ratio of AUC0-8 of ELF to plasma and AM to plasma were calculated.

[2] = Example 3: adverse events during the multiple dose phase; assay type: in vivo, human
Method: All infusions were administered over 3 hours. Intensive plasma and urine PK sampling was obtained after dosing and assayed using validated HPLC/MS methods.
Table 7 summarizes the number (%) of subjects with at least one treatment emergent AE and number of adverse events during the multiple dose phase. […] All AEs, except 2 were mild or moderate in severity. […] There is no evidence that the addition of Compound I changed the AE profile of meropenem.

[3] = AM concentration at time of bronchoscopy and BAL
[4] = AUC0-8 based on mean ELF concentrations
[5] = AUC0-8 based on median ELF concentrations
[6] = ELF concentration at time of bronchoscopy and BAL
[7] = Plasma concentration at time of bronchoscopy and BAL
[8] = Ratio AM to Plasma (total plasma concentration)
[9] = Ratio ELF to Plasma (total plasma concentration)
[10] = intrapulmonary penetration based on AUC0-8 of ELF and total plasma concentrations
[11] = intrapulmonary penetration, unbound plasma concentrations
[12] = mean ratios of ELF to simultaneous plasma concentrations (range)
[13] = ratio of ELF to total plasma concentrations based on mean AUC0-8
[14] = ratio of ELF to total plasma concentrations based on median AUC0-8
[15] = ratio of ELF to unbound plasma concentrations based on mean AUC0-8
[16] = ratio of ELF to unbound plasma concentrations based on median AUC0-8
[17] = Ratio of ELF to total Plasma concentration

- concentration at 1.5 h (clinical; [3]): 2710 ± 1440 ng/mL
- concentration at 3.25 h (clinical; [3]): 8790 ± 9430 ng/mL
- concentration at 4 h (clinical; [3]): 5510 ± 3150 ng/mL
- concentration at 6 h (clinical; [3]): 27600 ± 39600 ng/mL
- concentration at 8 h (clinical; [3]): 4400 ± 4100 ng/mL
- AUC(0-t) (clinical; [4]): 105 µg·h/mL
- AUC(0-t) (clinical; [5]): 96.7 µg·h/mL
- concentration at 1.5 h (clinical; [6]): 18600 ± 3800 ng/mL
- concentration at 3.25 h (clinical; [6]): 26100 ± 1100 ng/mL
- concentration at 4 h (clinical; [6]): 15700 ± 3400 ng/mL
- concentration at 6 h (clinical; [6]): 8030 ± 5800 ng/mL
- concentration at 8 h (clinical; [6]): 2610 ± 1350 ng/mL
- concentration at 1.5 h (clinical; [7]): 42100 ± 5000 ng/mL
- concentration at 3.25 h (clinical; [7]): 51100 ± 6800 ng/mL
- concentration at 4 h (clinical; [7]): 28200 ± 5300 ng/mL
- concentration at 6 h (clinical; [7]): 10800 ± 2800 ng/mL
- concentration at 8 h (clinical; [7]): 2740 ± 1120 ng/mL
- Kp at 1.5 h (clinical; [8]): 0.062 ± 0.029
- Kp at 3.25 h (clinical; [8]): 0.165 ± 0.163
- Kp at 4 h (clinical; [8]): 0.191 ± 0.101
- Kp at 6 h (clinical; [8]): 2.58 ± 3.57
- Kp at 8 h (clinical; [8]): 1.6 ± 1.1
- Kp at 1.5 h (clinical; [9]): 0.45 ± 0.123
- Kp at 3.25 h (clinical; [9]): 0.508 ± 0.096
- Kp at 4 h (clinical; [9]): 0.57 ± 0.159
- Kp at 6 h (clinical; [9]): 0.705 ± 0.329
- Kp at 8 h (clinical; [9]): 1.01 ± 0.391
- Kp (clinical; [10]): ~0.53
- Kp (clinical; [11]): 0.79
- Kp at 6 h (clinical; mean ratio of AM to plasma concentration): 2.58 ± 3.57
- Kp (clinical; mean ratios of AM to simultaneous plasma concentration (range)): 0.062 to 2.58
- Kp (clinical; [12]): 0.45 to 1.01
- Kp (clinical; [13]): 0.53
- Kp (clinical; [14]): 0.48
- Kp (clinical; [15]): 0.79
- Kp (clinical; [16]): 0.72
SMILES: O=C(O)C[C@@H]1CC[C@H](NC(=O)Cc2cccs2)B(O)O1 [Compound I]
- serious adverse events (SAEs) ([1]; 250-2000 mg): no serious adverse events
- severity of AEs ([1]; 250-2000 mg): all AEs were mild or moderate
- safety and tolerability ([1]; all doses tested): safe and well tolerated at all doses tested

SMILES: C[C@@H](O)[C@H]1C(=O)N2C(C(=O)O)=C(S[C@@H]3CN[C@H](C(=O)N(C)C)C3)[C@H](C)[C@H]12 [meropenem, Meropenem]
- AEs, Number of Events ([2]; Pooled 2 g Meropenem): [24]
- Moderate or Severe AEs, N subjects ([2]; Pooled 2 g Meropenem): 0
- Subjects with at least one Treatment Emergent AE, % ([2]; Pooled 2 g Meropenem): 80%
- AEs, Number of Events ([2]; Pooled Meropenem (1 and 2 g)): [67]
- Moderate or Severe AEs, % subjects ([2]; Pooled Meropenem (1 and 2 g)): 24%
- Moderate or Severe AEs, N subjects ([2]; Pooled Meropenem (1 and 2 g)): 5
- Moderate or Severe AEs, Number of Events ([2]; Pooled Meropenem (1 and 2 g)): [5]
- Subjects with at least one Treatment Emergent AE, % ([2]; Pooled Meropenem (1 and 2 g)): 95%
- Mild nausea ([2]; alone or in combination): observed only in the subjects who received meropenem 2 g
- AUC(0-t) (clinical; [4]): 112 µg·h/mL
- AUC(0-t) (clinical; [5]): 102 µg·h/mL
- concentration at 1.5 h (clinical; Concentration in ELF): 21400 ± 4000 ng/mL
- concentration at 3.25 h (clinical; Concentration in ELF): 28300 ± 6700 ng/mL
- concentration at 4 h (clinical; Concentration in ELF): 16100 ± 4800 ng/mL
- concentration at 6 h (clinical; Concentration in ELF): 7520 ± 5290 ng/mL
- concentration at 8 h (clinical; Concentration in ELF): 2510 ± 1130 ng/mL
- concentration at 1.5 h (clinical; Concentration in Plasma): 41200 ± 5000 ng/mL
- concentration at 3.25 h (clinical; Concentration in Plasma): 47700 ± 7300 ng/mL
- concentration at 4 h (clinical; Concentration in Plasma): 23800 ± 4300 ng/mL
- concentration at 6 h (clinical; Concentration in Plasma): 7240 ± 2790 ng/mL
- concentration at 8 h (clinical; Concentration in Plasma): 1360 ± 510 ng/mL
- Kp at 1.5 h (clinical; [17]): 0.525 ± 0.107
- Kp at 3.25 h (clinical; [17]): 0.59 ± 0.079
- Kp at 4 h (clinical; [17]): 0.705 ± 0.302
- Kp at 6 h (clinical; [17]): 1.04 ± 0.475
- Kp at 8 h (clinical; [17]): 2.13 ± 1.37
- Kp (clinical; [10]): ~0.63
- Kp (clinical; [11]): 0.65
- Kp (clinical; [12]): 0.525 to 2.13
- Kp (clinical; [13]): 0.63
- Kp (clinical; [14]): 0.58
- Kp (clinical; [15]): 0.65
- Kp (clinical; [16]): 0.59
